According to US7265129B2, “Anti-infective biaryl compounds” (priority 2002, dated 2007):

How the values were obtained:
B. cereus ATCC 11778 = assay: MIC, NCCLS broth microdilution, B. cereus; assay type: cell-based, Bacillus cereus
From the text: (§1) It vitro biological activity data were collected for a variety of microorganisms, including Bacillus cereus (ATCC 11778), Staphylococcus aureus (ATCC 33591; ATCC 27660, a methicillin resistant strain (MRSA); ATCC 13709, a methicillin sensitive strain (MSSA)), Enterococcus faecalis (ATCC 29212), and Streptococcus pneumoniae (ATCC 49619). Additionally, antifungal activity data were collected for Candida albicans (ATCC 38247).
(§2) Compounds according to this invention were screened for their in vitro activities against selected species of bacteria and fungi. The minimal inhibition concentration (MIC) of these compounds was determined using the National Committee for Clinical Laboratory Standards (NCCLS) broth microdilution assay in microtiter plates, as set forth in: (1) the guidelines of the National Committee for Clinical Laboratory Standards (NCCLS) Document M7-A4 (NCCLS, 1997); (2) the guidelines of the National Committee for Clinical Laboratory Standards (NCCLS) Document M11-A4 (NCCLS, 1997); and (3) the guidelines and reference method of the National Committee for Clinical Laboratory Standards (NCCLS) Document M27-T (NCCLS, 1995). For antifungal assays, the method recommended in Murray, P R., 1995 Manual of Clinical Microbiology (ASM Press, Washington, D.C.), was employed.

C. albicans ATCC 38247 = assay: MIC, antifungal assay, C. albicans; assay type: cell-based, Candida albicans
From the text: as §1, §2

E. faecalis ATCC 29212 = assay: MIC, NCCLS broth microdilution, E. faecalis; assay type: cell-based, Enterococcus faecalis
From the text: as §1, §2

S. aureus ATCC 13709 = assay: MIC, NCCLS broth microdilution, S. aureus MSSA; assay type: cell-based, Staphylococcus aureus; settings: S. aureus ATCC 13709, methicillin sensitive strain (MSSA)
From the text: as §1, §2

S. aureus ATCC 27660 = assay: MIC, NCCLS broth microdilution, S. aureus MRSA; assay type: cell-based, Staphylococcus aureus; settings: S. aureus ATCC 27660, methicillin resistant strain (MRSA)
From the text: as §1, §2

S. aureus ATCC 33591 = assay: MIC, NCCLS broth microdilution, S. aureus ATCC 33591; assay type: cell-based, Staphylococcus aureus
From the text: as §1, §2

S. pneumoniae ATCC 49619 = assay: MIC, NCCLS broth microdilution, S. pneumoniae; assay type: cell-based, Streptococcus pneumoniae
From the text: as §1, §2

E. faecium ATCC 51559 = assay: MIC, E. faecium VRE; assay type: cell-based, Enterococcus faccium; settings: Table C; E. faecium ATCC 51559, vancomycin resistant strain (VRE)
Protocol: as §2
(§3) Additionally, some compounds were screened against Enterococcus faccium (ATCC 51559, a vancomycin resistant strain (VRE)), Staphylococcus epidermidis (ATCC 12228), Streptococcus pneumoniae (ATCC 51422, a penicillin resistant strain (PRSP)), and/or Streptococcus pyogenes (ATCC 49399).

[1] = tested on: S. epidermidis ATCC 12228; assay: MIC, S. epidermidis; assay type: cell-based, Staphylococcus epidermidis; settings: Table C
Protocol: as §2, §3

[2] = MIC, Table C (organism not given); assay type: cell-based
Protocol: as §2, §3

Structure (SMILES) | Minimum Inhibitory Concentration (MIC), organism A (B. cereus ATCC 11778) | Minimum Inhibitory Concentration (MIC), organism B (C. albicans ATCC 38247) | Minimum Inhibitory Concentration (MIC), organism C (E. faecalis ATCC 29212) | Minimum Inhibitory Concentration (MIC), organism D (S. aureus ATCC 13709) | Minimum Inhibitory Concentration (MIC), organism E (S. aureus ATCC 27660) | Minimum Inhibitory Concentration (MIC), organism F (S. aureus ATCC 33591) | Minimum Inhibitory Concentration (MIC), organism G (S. pneumoniae ATCC 49619) | Minimum Inhibitory Concentration (MIC), organism A (E. faecium ATCC 51559) | Minimum Inhibitory Concentration (MIC), organism B [1] | Minimum Inhibitory Concentration (MIC), organism E [2]
Cc1ccc2nc(-c3cc(NC(=O)c4cc(NC(=O)c5cc6ccccc6cn5)cn4C)cn3C)[nH]c2c1 [Compound A-2] | +++ (MIC ≦ 4 μg/mL) | >32 µg/mL | +++ (MIC ≦ 4 μg/mL) | +++ (MIC ≦ 4 μg/mL) | +++ (MIC ≦ 4 μg/mL) | +++ (MIC ≦ 4 μg/mL) | +++ (MIC ≦ 4 μg/mL) | +++ (MIC ≦ 4 pg/mL) | +++ (MIC ≦ 4 pg/mL) | +++ (MIC ≦ 4 pg/mL)
Cn1cc(NC(=O)c2cc(NC(=O)c3ccc(Cl)cc3F)cn2CCCN2CCC(O)CC2)cc1-c1nc2ccccc2[nH]1 [Compound A-34] | +++ (MIC ≦ 4 μg/mL) | + (12 ≦ MIC ≦ 32 μg/mL) | +++ (MIC ≦ 4 μg/mL) | +++ (MIC ≦ 4 μg/mL) | +++ (MIC ≦ 4 μg/mL) | +++ (MIC ≦ 4 μg/mL) | +++ (MIC ≦ 4 μg/mL) | – | – | –
Cn1cc(NC(=O)c2cc3ccccc3cn2)cc1C(=O)Nc1cc(-c2nc3ccc(N)cc3[nH]2)n(C)c1 [Compound A-8] | ++ (4 < MIC < 12 μg/mL) | >32 µg/mL | +++ (MIC ≦ 4 μg/mL) | +++ (MIC ≦ 4 μg/mL) | +++ (MIC ≦ 4 μg/mL) | +++ (MIC ≦ 4 μg/mL) | +++ (MIC ≦ 4 μg/mL) | – | – | –
Cn1cc(NC(=O)c2cc(NC(=O)c3sc4ccccc4c3Cl)cn2CCCN2CCC(F)(F)CC2)cc1-c1nc2ccccc2[nH]1 [Compound A-25] | >32 µg/mL | >32 µg/mL | + (12 ≦ MIC ≦ 32 μg/mL) | + (12 ≦ MIC ≦ 32 μg/mL) | + (12 ≦ MIC ≦ 32 μg/mL) | + (12 ≦ MIC ≦ 32 μg/mL) | ++ (4 < MIC < 12 μg/mL) | – | – | –
Cn1cc(NC(=O)c2cc3ccccc3cn2)cc1C(=O)Nc1cc(-c2nc3ccc(NC(=O)CCN4CCOCC4)cc3[nH]2)n(C)c1 [Compound A-11] | +++ (MIC ≦ 4 μg/mL) | >32 µg/mL | +++ (MIC ≦ 4 μg/mL) | +++ (MIC ≦ 4 μg/mL) | +++ (MIC ≦ 4 μg/mL) | +++ (MIC ≦ 4 μg/mL) | +++ (MIC ≦ 4 μg/mL) | – | – | –
Cn1cc(NC(=O)c2cc3ccccc3cn2)cc1C(=O)Nc1cc(-c2nc3ccc(OCCN4CCOCC4)cc3[nH]2)n(C)c1 [Compound A-10] | +++ (MIC ≦ 4 μg/mL) | >32 µg/mL | +++ (MIC ≦ 4 μg/mL) | +++ (MIC ≦ 4 μg/mL) | +++ (MIC ≦ 4 μg/mL) | +++ (MIC ≦ 4 μg/mL) | +++ (MIC ≦ 4 μg/mL) | – | – | –
Cn1cc(NC(=O)c2cc(NC(=O)c3sc4ccccc4c3Cl)cn2CCC[n+]2ccccc2)cc1-c1nc2ccccc2[nH]1 [Compound A-27] | + (12 ≦ MIC ≦ 32 μg/mL) | + (12 ≦ MIC ≦ 32 μg/mL) | + (12 ≦ MIC ≦ 32 μg/mL) | ++ (4 < MIC < 12 μg/mL) | ++ (4 < MIC < 12 μg/mL) | ++ (4 < MIC < 12 μg/mL) | + (12 ≦ MIC ≦ 32 μg/mL) | – | – | –
Cn1cc(NC(=O)c2cc(NC(=O)c3ccc(Cl)cc3F)cn2CCCN(CCO)CCO)cc1-c1nc2ccccc2[nH]1 [Compound A-36] | ++ (4 < MIC < 12 μg/mL) | + (12 ≦ MIC ≦ 32 μg/mL) | +++ (MIC ≦ 4 μg/mL) | ++ (4 < MIC < 12 μg/mL) | +++ (MIC ≦ 4 μg/mL) | +++ (MIC ≦ 4 μg/mL) | +++ (MIC ≦ 4 μg/mL) | – | – | –
CC1CCN(CCCn2cc(NC(=O)c3ccc(Cl)cc3F)cc2C(=O)Nc2cc(-c3nc4cccnc4[nH]3)n(C)c2)CC1 [Compound A-41] | +++ (MIC ≦ 4 μg/mL) | >32 µg/mL | +++ (MIC ≦ 4 μg/mL) | +++ (MIC ≦ 4 μg/mL) | +++ (MIC ≦ 4 μg/mL) | +++ (MIC ≦ 4 μg/mL) | +++ (MIC ≦ 4 μg/mL) | – | – | –
Cc1cccc2nc(-c3cc(NC(=O)c4cc(NC(=O)c5cc6ccccc6cn5)cn4C)cn3C)[nH]c12 [Compound A-3] | >32 µg/mL | >32 µg/mL | >32 µg/mL | >32 µg/mL | >32 µg/mL | >32 µg/mL | >32 µg/mL | – | – | –
Cn1cc(NC(=O)c2cc(NC(=O)c3ccc(Cl)cc3F)cn2CCCN2CCSCC2)cc1-c1nc2ccccc2[nH]1 [Compound A-33] | +++ (MIC ≦ 4 μg/mL) | >32 µg/mL | +++ (MIC ≦ 4 μg/mL) | +++ (MIC ≦ 4 μg/mL) | +++ (MIC ≦ 4 μg/mL) | +++ (MIC ≦ 4 μg/mL) | +++ (MIC ≦ 4 μg/mL) | – | – | –
Cn1cc(NC(=O)c2cc3ccccc3cn2)cc1C(=O)Nc1cc(-c2nc3cc(O)ccc3[nH]2)n(C)c1 [Compound A-6] | +++ (MIC ≦ 4 μg/mL) | >32 µg/mL | +++ (MIC ≦ 4 μg/mL) | +++ (MIC ≦ 4 μg/mL) | +++ (MIC ≦ 4 μg/mL) | +++ (MIC ≦ 4 μg/mL) | +++ (MIC ≦ 4 μg/mL) | – | – | –
Cn1cc(NC(=O)c2cc(NC(=O)c3ccc(Cl)cc3F)cn2CCCN2CCC(O)CC2)cc1-c1nc2cccnc2[nH]1 [Compound A-42] | +++ (MIC ≦ 4 μg/mL) | + (12 ≦ MIC ≦ 32 μg/mL) | +++ (MIC ≦ 4 μg/mL) | +++ (MIC ≦ 4 μg/mL) | +++ (MIC ≦ 4 μg/mL) | +++ (MIC ≦ 4 μg/mL) | +++ (MIC ≦ 4 μg/mL) | – | – | –
Cn1cc(NC(=O)c2cc(NC(=O)c3ccc(Cl)cc3F)cn2CCCN2CCOCC2)cc1-c1nc2ccccc2[nH]1 [Compound A-37] | +++ (MIC ≦ 4 μg/mL) | >32 µg/mL | +++ (MIC ≦ 4 μg/mL) | +++ (MIC ≦ 4 μg/mL) | +++ (MIC ≦ 4 μg/mL) | +++ (MIC ≦ 4 μg/mL) | +++ (MIC ≦ 4 μg/mL) | – | – | –
